Results taken from US20090304692A1, “TRIAZINE COMPOUNDS AS PI3 KINASE AND MTOR INHIBITORS” (Wyeth, priority 2008, published 2009).
Several values for one entry are separate records, joined by “and”; a condition that tells them apart may be missing. Equal values may be shown once. Read-outs that look alike come from different tables or passages of the source.

Legend:
[1] = target: Human mTOR (FLAG-TOR) (Homo sapiens, UniProt P42345); assay: mTOR kinase assay (DELFIA format, purified enzyme); format: biochemical; conditions: read-out: IC50 mTOR
Human mTOR (FLAG-TOR), sequence (P42345 1360-2549 limits assumed): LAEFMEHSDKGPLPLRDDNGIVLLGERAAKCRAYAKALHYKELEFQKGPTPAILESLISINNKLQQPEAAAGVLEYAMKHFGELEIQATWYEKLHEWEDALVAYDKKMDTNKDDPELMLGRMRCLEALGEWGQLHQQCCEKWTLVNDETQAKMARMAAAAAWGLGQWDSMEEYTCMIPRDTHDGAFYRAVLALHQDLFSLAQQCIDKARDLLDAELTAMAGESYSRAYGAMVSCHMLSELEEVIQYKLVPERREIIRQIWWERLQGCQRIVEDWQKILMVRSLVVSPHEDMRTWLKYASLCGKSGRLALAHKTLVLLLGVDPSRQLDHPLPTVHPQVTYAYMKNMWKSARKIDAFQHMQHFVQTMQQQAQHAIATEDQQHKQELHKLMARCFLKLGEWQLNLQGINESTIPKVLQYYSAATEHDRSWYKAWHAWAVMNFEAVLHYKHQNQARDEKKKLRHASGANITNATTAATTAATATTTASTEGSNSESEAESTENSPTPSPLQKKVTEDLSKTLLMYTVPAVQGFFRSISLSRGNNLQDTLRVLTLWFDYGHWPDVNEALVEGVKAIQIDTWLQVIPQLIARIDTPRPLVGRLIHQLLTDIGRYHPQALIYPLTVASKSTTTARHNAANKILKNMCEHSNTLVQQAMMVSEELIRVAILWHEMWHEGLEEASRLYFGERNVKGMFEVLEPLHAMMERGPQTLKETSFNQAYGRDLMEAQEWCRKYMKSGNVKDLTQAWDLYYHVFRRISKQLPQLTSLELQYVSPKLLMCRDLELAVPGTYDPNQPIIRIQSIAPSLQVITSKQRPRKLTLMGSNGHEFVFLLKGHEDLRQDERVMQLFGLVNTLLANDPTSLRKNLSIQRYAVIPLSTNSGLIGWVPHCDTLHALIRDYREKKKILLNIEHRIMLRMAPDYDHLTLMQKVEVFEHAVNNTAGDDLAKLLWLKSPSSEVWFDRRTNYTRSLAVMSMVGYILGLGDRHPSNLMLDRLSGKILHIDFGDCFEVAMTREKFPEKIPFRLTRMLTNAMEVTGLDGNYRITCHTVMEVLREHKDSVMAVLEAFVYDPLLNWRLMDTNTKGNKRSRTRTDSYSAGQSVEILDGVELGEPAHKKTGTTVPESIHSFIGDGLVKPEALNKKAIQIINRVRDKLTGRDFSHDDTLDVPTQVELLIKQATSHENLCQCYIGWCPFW

[2] = target: PI3K-γ (Homo sapiens, UniProt P48736); assay: PI3K-gamma fluorescence polarization assay; conditions: read-out: IC50 PI3Kγ
PI3K-γ, sequence (P48736 whole entry, species assumed): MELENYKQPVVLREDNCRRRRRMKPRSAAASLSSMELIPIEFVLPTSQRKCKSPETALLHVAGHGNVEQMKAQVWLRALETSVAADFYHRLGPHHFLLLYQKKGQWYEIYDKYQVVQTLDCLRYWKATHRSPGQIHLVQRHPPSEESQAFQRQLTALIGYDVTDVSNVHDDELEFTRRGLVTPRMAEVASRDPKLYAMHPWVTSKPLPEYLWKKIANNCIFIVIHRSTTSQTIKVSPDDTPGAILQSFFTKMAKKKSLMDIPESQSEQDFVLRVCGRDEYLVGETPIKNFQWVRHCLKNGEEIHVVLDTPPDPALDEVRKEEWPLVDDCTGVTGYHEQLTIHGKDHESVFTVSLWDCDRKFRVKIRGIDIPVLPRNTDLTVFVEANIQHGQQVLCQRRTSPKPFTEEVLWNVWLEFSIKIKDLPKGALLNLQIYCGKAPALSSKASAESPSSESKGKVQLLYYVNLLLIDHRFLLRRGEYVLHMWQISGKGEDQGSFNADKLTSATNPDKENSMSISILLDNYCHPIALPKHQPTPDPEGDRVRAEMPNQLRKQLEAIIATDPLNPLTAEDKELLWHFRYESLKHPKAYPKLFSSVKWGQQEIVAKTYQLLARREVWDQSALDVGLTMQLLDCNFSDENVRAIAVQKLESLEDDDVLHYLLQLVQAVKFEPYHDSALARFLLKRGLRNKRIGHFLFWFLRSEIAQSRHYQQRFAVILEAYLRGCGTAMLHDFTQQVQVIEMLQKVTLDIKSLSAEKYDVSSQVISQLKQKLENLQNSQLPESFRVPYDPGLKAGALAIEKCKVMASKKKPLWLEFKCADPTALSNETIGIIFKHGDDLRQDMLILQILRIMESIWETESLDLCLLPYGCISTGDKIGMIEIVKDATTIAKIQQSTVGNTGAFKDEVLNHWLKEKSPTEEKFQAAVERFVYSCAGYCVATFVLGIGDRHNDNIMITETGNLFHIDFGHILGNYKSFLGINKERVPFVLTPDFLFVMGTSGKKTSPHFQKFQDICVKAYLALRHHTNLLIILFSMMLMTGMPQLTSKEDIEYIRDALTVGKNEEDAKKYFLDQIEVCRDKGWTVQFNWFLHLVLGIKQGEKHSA

[3] = system: human breast MDA-MB-361 tumor cell line; assay: In vitro cell culture growth assay (MTS), MDA-MB-361; format: cell-based; conditions: Homo sapiens, three days after drug treatment, read-out: IC50 MDA-MB-361
[4] = target: PI3K-α (Homo sapiens, UniProt P42336); assay: PI3K-alpha fluorescence polarization assay; conditions: read-out: IC50 PI3Kα
PI3K-α, sequence (P42336 whole entry, species assumed): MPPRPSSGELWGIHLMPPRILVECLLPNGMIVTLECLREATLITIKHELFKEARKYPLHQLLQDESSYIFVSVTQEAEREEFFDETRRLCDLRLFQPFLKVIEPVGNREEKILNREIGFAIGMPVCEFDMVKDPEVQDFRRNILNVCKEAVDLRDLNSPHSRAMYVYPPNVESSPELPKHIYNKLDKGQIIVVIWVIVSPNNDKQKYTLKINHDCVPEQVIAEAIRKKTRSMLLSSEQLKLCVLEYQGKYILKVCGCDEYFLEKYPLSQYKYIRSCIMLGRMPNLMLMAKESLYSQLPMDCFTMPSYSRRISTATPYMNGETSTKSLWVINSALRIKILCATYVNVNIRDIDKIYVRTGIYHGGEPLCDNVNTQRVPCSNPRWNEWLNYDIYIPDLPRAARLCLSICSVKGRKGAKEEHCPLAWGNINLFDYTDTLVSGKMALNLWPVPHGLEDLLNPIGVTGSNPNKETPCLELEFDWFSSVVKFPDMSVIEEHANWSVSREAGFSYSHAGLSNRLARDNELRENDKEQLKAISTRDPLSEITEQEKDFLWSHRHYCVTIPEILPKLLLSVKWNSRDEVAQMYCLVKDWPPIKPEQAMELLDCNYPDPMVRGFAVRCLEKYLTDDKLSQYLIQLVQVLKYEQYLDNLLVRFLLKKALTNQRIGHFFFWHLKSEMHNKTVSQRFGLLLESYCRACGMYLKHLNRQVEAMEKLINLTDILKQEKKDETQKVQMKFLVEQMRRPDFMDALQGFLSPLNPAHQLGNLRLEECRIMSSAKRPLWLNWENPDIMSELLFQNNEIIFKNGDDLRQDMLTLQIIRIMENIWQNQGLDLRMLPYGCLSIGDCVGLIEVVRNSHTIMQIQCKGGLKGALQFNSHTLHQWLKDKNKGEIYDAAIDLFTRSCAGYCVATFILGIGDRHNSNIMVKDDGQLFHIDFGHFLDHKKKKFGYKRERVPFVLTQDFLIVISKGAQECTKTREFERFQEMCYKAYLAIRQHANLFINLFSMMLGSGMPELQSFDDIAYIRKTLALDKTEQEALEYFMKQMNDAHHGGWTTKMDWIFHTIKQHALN
PI3K-α, sequence (P27986 whole entry partner, species assumed): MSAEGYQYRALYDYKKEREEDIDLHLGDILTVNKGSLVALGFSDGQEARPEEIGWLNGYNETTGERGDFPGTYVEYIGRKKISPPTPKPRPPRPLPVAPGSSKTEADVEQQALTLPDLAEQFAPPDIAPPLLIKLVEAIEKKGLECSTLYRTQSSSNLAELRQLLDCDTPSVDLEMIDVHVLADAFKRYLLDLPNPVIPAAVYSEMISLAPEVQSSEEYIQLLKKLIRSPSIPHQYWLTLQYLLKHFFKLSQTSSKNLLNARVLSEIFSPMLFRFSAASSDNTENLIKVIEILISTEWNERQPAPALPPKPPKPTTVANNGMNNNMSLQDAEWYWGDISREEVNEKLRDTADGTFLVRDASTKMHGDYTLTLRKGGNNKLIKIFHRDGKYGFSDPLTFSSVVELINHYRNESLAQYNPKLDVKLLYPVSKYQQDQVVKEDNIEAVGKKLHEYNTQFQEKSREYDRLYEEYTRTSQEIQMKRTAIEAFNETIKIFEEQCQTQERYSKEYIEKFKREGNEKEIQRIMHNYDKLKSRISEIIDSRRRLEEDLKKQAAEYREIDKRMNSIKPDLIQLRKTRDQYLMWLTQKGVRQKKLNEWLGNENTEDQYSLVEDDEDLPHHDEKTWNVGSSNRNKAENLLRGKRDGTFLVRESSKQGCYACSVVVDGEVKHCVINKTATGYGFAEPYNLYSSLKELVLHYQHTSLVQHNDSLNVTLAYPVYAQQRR

[5] = system: human prostate PC3-mm2 tumor cell line; assay: In vitro cell culture growth assay (MTS), PC3-mm2; format: cell-based; conditions: Homo sapiens, PC3MM2, 72 h
[6] = 72 h, MTS cell growth assay, MDA-MB-361 cells
[7] = MTS cell growth assay, three days after drug treatment, PC3-mm2 cells, read-out: IC50 PC3-mm2
[8] = MDA-MB-361, 72 h, MTS cell growth assay, MDA-MB-361 cells
[9] = MDA-MB-361, 72 h, MTS cell growth assay
[10] = MTS cell growth assay, three days after drug treatment, read-out: IC50 PC3-mm2
[11] = PC3-mm2 cells, MTS, three days after drug treatment, read-out: IC50 PC3-mm2

| IC50 [1] | IC50 [2] [nM] | IC50 [3, 6] [nM] | IC50 [4] [nM] | IC50 ([2]; listed as 710) [nM] | IC50 [3, 9] [nM] | IC50 ([4]; listed as 710) [nM] | IC50 [5, 10] [nM] | IC50 ([5]; read-out: IC50 PC3-mm2, MTS cell growth assay, three days after drug treatment) [nM] | IC50 ([2]; listed as 532) [nM] | Structure (SMILES) | IC50 [5, 7] [nM] | IC50 [3, 8] [nM] | IC50 ([3]; 72 h, MDA-MB-361 cells, MTS) [nM] | IC50 [5, 11] [nM] |
| --- | --- | --- | --- | --- | --- | --- | --- | --- | --- | --- | --- | --- | --- | --- |
| 21.5 nM | 67 | 281 | 8 | – | – | – | – | – | – | Cc1ccc(-c2nc(-c3ccc(NC(=O)Nc4ccc(C(=O)NCCN(C)C)cc4)cc3)nc(N3CCOCC3)n2)cc1 [Example 542, N-[2-(dimethylamino)ethyl]-4-[({4-[4-(4-methylphenyl)-6-morpholin-4-yl-1,3,5-triazin-2-yl]phenyl}carbamoyl)amino]benzamide] | 569 | – | – | – |
| 34 nM | 143 | – | 15 | 144 | 533 | 15.5 | 509 | – | – | Cc1cc(NC(=O)Nc2ccc(-c3nc(N4CCOCC4)nc(N4CCC5(CC4)OCCO5)n3)cc2)ccn1 [Example 135, 1-{4-[4-(1,4-dioxa-8-azaspiro[4.5]dec-8-yl)-6-morpholin-4-yl-1,3,5-triazin-2-yl]phenyl}-3-(2-methylpyridin-4-yl)urea] | 509 | – | – | – |
| 2.5 nM | 177 | – | 23 | – | 255 | – | 328 | – | – | CC(C)(C)OC(=O)N1CC(Nc2nc(-c3ccc(NC(=O)Nc4cccnc4)cc3)nc(N3CCOCC3)n2)C1 [Example 15, tert-butyl 3-[(4-morpholin-4-yl-6-{4-[(pyridine-3-ylcarbamoyl)amino]phenyl}-1,3,5-triazin-2-yl)amino]azetidine-1-carboxylate] | – | – | – | – |
| 13 nM | 23 | – | 2 | – | 68 | – | 129 | – | – | CCc1nc(-c2ccc(NC(=O)Nc3ccc(C(=O)NC4CCN(C)CC4)cc3)cc2)nc(N2CCOCC2)n1 [Example 271, 4-({[4-(4-ethyl-6-morpholin-4-yl-1,3,5-triazin-2-yl)phenyl]carbamoyl}amino)-N-(1-methylpiperidin-4-yl)benzamide] | – | – | – | – |
| 0.75 nM | 10 | – | 0.6 | – | < 3 | – | – | 7 | – | O=C(Nc1ccc(C(=O)N2CCC(N3CCCCC3)CC2)cc1)Nc1ccc(-c2nc(N3CCOCC3)nc(N3CCOCC3)n2)cc1 [Example 75, 1-(4-(1,4′-bipiperidine-1′-carbonyl)phenyl)-3-(4-(4,6-dimorpholino-1,3,5-triazin-2-yl)phenyl)urea] | – | – | – | – |
| 6 nM | 59 | 66 | 11.5 | – | – | – | – | – | – | COCCNC(=O)c1ccc(NC(=O)Nc2ccc(-c3nc(-c4cccs4)nc(N4CCOCC4)n3)cc2)cc1 [Example 561, N-(2-methoxyethyl)-4-[({4-[4-morpholin-4-yl-6-(2-thienyl)-1,3,5-triazin-2-yl]phenyl}carbamoyl)amino]benzamide] | 218 | – | – | – |
| 22 nM and 19 nM | 77 | – | 3 | – | 122 | – | 266 | – | 76.5 | Cc1ccc(-c2nc(-c3ccc(NC(=O)Nc4ccc(C(=O)N(C)CCN(C)C)cc4)cc3)nc(N3CCOCC3)n2)cc1 [Example 338, N-[2-(dimethylamino)ethyl]-N-methyl-4-[({4-[4-(4-methylphenyl)-6-morpholin-4-yl-1,3,5-triazin-2-yl]phenyl}carbamoyl)amino]benzamide] | 266 | – | – | – |
| 0.17 nM | 15 | < 3.2 | 1.6 | – | – | – | – | – | – | O=C(Nc1ccc(C(=O)NCCN2CCCCC2)cc1)Nc1ccc(-c2nc(C3CCOCC3)nc(N3CCOCC3)n2)cc1 [Example 514, 4-[({4-[4-morpholin-4-yl-6-(tetrahydro-2H-pyran-4-yl)-1,3,5-triazin-2-yl]phenyl}carbamoyl)amino]-N-(2-piperidin-1-ylethyl)benzamide] | 12 | – | – | – |
| 1 nM | 74.5 | 9 | 15 | – | – | – | – | – | – | CCC(C)N1CCN(C(=O)c2ccc(NC(=O)Nc3ccc(-c4nc(N5CCOC[C@@H]5C)nc(N5CCOC[C@@H]5C)n4)cc3)cc2)CC1 (stereo partly drawn) [Example 632, 1-(4-{4,6-bis[(3S)-3-methylmorpholin-4-yl]-1,3,5-triazin-2-yl}phenyl)-3-(4-{[4-(1-methylpropyl)piperazin-1-yl]carbonyl}phenyl)urea] | 38 | – | – | – |

Second part, the compound before the results:

| Structure (SMILES) | IC50 [1] | IC50 [2] [nM] | IC50 [3, 6] [nM] | IC50 [4] [nM] | IC50 ([2]; listed as 710) [nM] | IC50 [3, 9] [nM] | IC50 ([4]; listed as 710) [nM] | IC50 [5, 10] [nM] | IC50 ([5]; read-out: IC50 PC3-mm2, MTS cell growth assay, three days after drug treatment) [nM] | IC50 ([2]; listed as 532) [nM] | IC50 [5, 7] [nM] | IC50 [3, 8] [nM] | IC50 ([3]; 72 h, MDA-MB-361 cells, MTS) [nM] | IC50 [5, 11] [nM] |
| --- | --- | --- | --- | --- | --- | --- | --- | --- | --- | --- | --- | --- | --- | --- |
| CN1CCN(CCNC(=O)c2ccc(NC(=O)Nc3ccc(-c4nc(N5CCOCC5)nc(N5C6CCC5COC6)n4)cc3)cc2)CC1 [Example 753, N-[2-(4-methylpiperazin-1-yl)ethyl]-4-[({4-[4-morpholin-4-yl-6-(3-oxa-8-azabicyclo[3.2.1]oct-8-yl)-1,3,5-triazin-2-yl]phenyl}carbamoyl)amino]benzamide] | 0.315 nM | 31 | 4 | 2 | – | – | – | – | – | – | 14 | – | – | – |
| CC1CN(C(=O)c2ccc(NC(=O)Nc3ccc(-c4nc(N5CCOCC5)nc(N5C6CCC5COC6)n4)cc3)cc2)CC(C)N1 (stereo not shown) [Example 703, 1-{4-[(3,5-dimethylpiperazin-1-yl)carbonyl]phenyl}-3-{4-[4-morpholin-4-yl-6-(3-oxa-8-azabicyclo[3.2.1]oct-8-yl)-1,3,5-triazin-2-yl]phenyl}urea] | 0.51 nM | 23.5 | – | 1.5 | – | – | – | – | – | – | 13 | < 3 | – | – |
| O=C(Nc1ccc(C(=O)NCCc2ccncc2)cc1)Nc1ccc(-c2nc(N3CCOCC3)nc(N3C4COCC3COC4)n2)cc1 [Example 779, 4-[({4-[4-(3,7-dioxa-9-azabicyclo[3.3.1]non-9-yl)-6-morpholin-4-yl-1,3,5-triazin-2-yl]phenyl}carbamoyl)amino]-N-(2-pyridin-4-ylethyl)benzamide] | 0.23 nM | 49.7 | 13 | 4.2 | – | – | – | – | – | – | 23 | – | – | – |
| CN(C)C1CCN(C(=O)c2ccc(NC(=O)Nc3ccc(-c4nc(N5CCOCC5)nc(N5C6CCC5COC6)n4)cc3)cc2)CC1 [Example 752, 1-(4-{[4-(dimethylamino)piperidin-1-yl]carbonyl}phenyl)-3-{4-[4-morpholin-4-yl-6-(3-oxa-8-azabicyclo[3.2.1]oct-8-yl)-1,3,5-triazin-2-yl]phenyl}urea] | 0.29 nM | 18.5 | – | 1.2 | – | – | – | – | – | – | 6 | < 3 | – | – |
| CN1CCN(C(=O)c2ccc(NC(=O)Nc3ccc(-c4nc(N5CCOCC5)nc(N5C6COCC5COC6)n4)cc3)cc2)CC1 [Example 769, 1-{4-[4-(3,7-dioxa-9-azabicyclo[3.3.1]non-9-yl)-6-morpholin-4-yl-1,3,5-triazin-2-yl]phenyl}-3-{4-[(4-methylpiperazin-1-yl)carbonyl]phenyl}urea] | 0.23 nM | 17.5 | – | 2.1 | – | – | – | – | – | – | 14 | 6 | – | – |
| C[C@H]1COCCN1c1nc(-c2ccc(NC(=O)Nc3ccc(C(=O)NCCN4CCN(C)CC4)cc3)cc2)nc(N2CCOC[C@@H]2C)n1 [Example 633, 4-{[(4-{4,6-bis[(3S)-3-methylmorpholin-4-yl]-1,3,5-triazin-2-yl}phenyl)carbamoyl]amino}-N-[2-(4-methylpiperazin-1-yl)ethyl]benzamide] | 1 nM | 175 | 15 | 11.5 | – | – | – | – | – | – | 64 | – | – | – |
| O=C(Nc1ccc(C(=O)NCCN2CCCCC2)cc1)Nc1ccc(-c2nc(N3CCOCC3)nc(N3C4COCC3COC4)n2)cc1 [Example 775, 4-[({4-[4-(3,7-dioxa-9-azabicyclo[3.3.1]non-9-yl)-6-morpholin-4-yl-1,3,5-triazin-2-yl]phenyl}carbamoyl)amino]-N-(2-piperidin-1-ylethyl)benzamide] | 0.23 nM | 46.5 | 5 | 2.5 | – | – | – | – | – | – | 7 | – | – | – |
| CN1CCCC1CCNC(=O)c1ccc(NC(=O)Nc2ccc(-c3nc(N4CCOCC4)nc(N4C5CCCC4COC5)n3)cc2)cc1 (stereo not shown) [Example 801, N-[2-(1-methylpyrrolidin-2-yl)ethyl]-4-[({4-[4-morpholin-4-yl-6-(3-oxa-9-azabicyclo[3.3.1]non-9-yl)-1,3,5-triazin-2-yl]phenyl}carbamoyl)amino]benzamide] | 0.455 nM | 38 | – | 5 | – | – | – | – | – | – | – | – | 3 | 32 |
| CN(C)CCNC(=O)c1ccc(NC(=O)Nc2ccc(-c3nc(N4CCOCC4)nc(N4C5CCCC4COC5)n3)cc2)cc1 [Example 796, N-[2-(dimethylamino)ethyl]-4-[({4-[4-morpholin-4-yl-6-(3-oxa-9-azabicyclo[3.3.1]non-9-yl)-1,3,5-triazin-2-yl]phenyl}carbamoyl)amino]benzamide] | 0.39 nM | 31.5 | – | 2.6 | – | – | – | – | – | – | – | – | 2 | 18 |
| O=C(Nc1ccc(-c2nc(N3CCOCC3)nc(N3C4CCC3COC4)n2)cc1)Nc1ccc(-c2nc(N3CCOCC3)nc(N3C4CCC3COC4)n2)cc1 [Example 751, 1,3-bis{4-[4-morpholin-4-yl-6-(3-oxa-8-azabicyclo[3.2.1]oct-8-yl)-1,3,5-triazin-2-yl]phenyl}urea] | 3 nM | 404 | – | 143 | – | – | – | – | – | – | 238 | 144 | – | – |
